{
  "source": "patent US20190388364A1",
  "about": "“[…] A LOCAL […]” (GRÜNENTHAL GMBH, priority 2017, published 2019)",
  "system": "guinea pig skin twitch response",
  "test": "guinea pig skin test (skin twitch response, local anesthetic effect)",
  "format": "in vivo",
  "conditions": "for Stimuli per twitch response (means ± s.e.m.): max 20 stimuli; for number of animals with abrogated twitch response (max. effect): no twitch response after 20 stimuli",
  "method": "The local anesthetic effects of Tapentadol were studied in a guinea pig skin test.\nAnimals: Male Pirbright White guinea pigs from a commercial breeder (ca. 400 g body weights) were used for the study. The animals were housed under standard conditions: room temperature […], rel. air changes per hour, air movement <0.2 m/sec, light/dark rhythm (06.00-18.00 h light, 18.00-06.00 h dark). The animals had access to water ad libitum and to an exclusive diet of “Herilan RM 204” (Eggersmann Company, Rinteln/Germany). Before the experiment they lived in groups of 5-8 animals in type IV Makrolone cages (Ebeco Company, Castrop-Rauxel/Germany). There were at least five days between delivery of the animals and the test day.\nTapentadol (test compound was) dissolved in 0.9% NaCl solution. Application route: intradermal application. Application volume: 0.1 ml per application site. Concentrations: 0.05/0.01/0.3/0.5%.\nApplication route: intradermal application. Application volume: 0.1 ml per application site. Concentrations: 0.1/0.3/1.0.\nThe experiments were performed according to a modified method originally described by Bülbring and Wajda (J Pharm Exp Ther 85: 78-84, 1945). After erasure of the back of the animals 0.1 ml of solutions of the test compounds or of vehicle (0.9% NaCl) were injected intradermally. There were 3 injection sites each on both flanks of the back with a craniocaudal distance between them of 1.5 cm. A twitch response of the skin musculature was provoked by contact of these sites with the tip of an injection cannula. The number of the stimuli needed to provoke a twitch response was registered. A maximum of 20 stimuli per site was allowed. […] Thereafter, solution with different concentrations of the test compounds or vehicle were injected and the skin sensitivity was evaluated at 2, 5, 10, 15 and 20 min. The different test solutions were injected on both flanks of the back into the cranial, intermediate or caudal test site in a randomized order.\nTest parameter: Stimuli per twitch response.\nEach concentration of the test compounds was tested at 6-7 sites. The means±s.e.m. of stimuli that were necessary to induce a twitch response were calculated for the different times after application. In addition, number of tests with a complete abolition of skin sensitivity (i.e., no twitch response after 20 stimuli) was used to calculate an EC50-value (with 95% confidence limits) according to Litchfield and Wilcoxon.",
  "key": {"[1]": {"conditions": "0.1 wt.-% intradermal, 2 min after application"}, "[2]": {"conditions": "0.1 wt.-% intradermal, 5 min after application"}, "[3]": {"conditions": "0.1 wt.-% intradermal, 10 min after application"}, "[4]": {"conditions": "0.1 wt.-% intradermal, 15 min after application"}, "[5]": {"conditions": "0.1 wt.-% intradermal, 20 min after application"}, "[6]": {"conditions": "0.3 wt.-% intradermal, 2 min after application"}, "[7]": {"conditions": "0.3 wt.-% intradermal, 5 min after application"}, "[8]": {"conditions": "0.3 wt.-% intradermal, 10 min after application"}, "[9]": {"conditions": "0.3 wt.-% intradermal, 15 min after application"}, "[10]": {"conditions": "0.3 wt.-% intradermal, 20 min after application"}},
  "data": [
    {"smiles": "CC[C@@H](c1cccc(O)c1)[C@@H](C)CN(C)C", "note": "[Tapentadol, (1R,2R)-3-(3-dimethylamino-1-ethyl-2-methyl-propyl)-phenol]", "values": [
      {"measurement": "Stimuli per twitch response (means ± s.e.m.)", "setting": "0.05 wt.-% intradermal, 0.1 ml per site, 2 min after application", "result": "6 ± 3"},
      {"measurement": "Stimuli per twitch response (means ± s.e.m.)", "setting": "0.05 wt.-% intradermal, 5 min after application", "result": 1},
      {"measurement": "Stimuli per twitch response (means ± s.e.m.)", "setting": "0.05 wt.-% intradermal, 10 min after application", "result": 1},
      {"measurement": "Stimuli per twitch response (means ± s.e.m.)", "setting": "0.05 wt.-% intradermal, 15 min after application", "result": 1},
      {"measurement": "Stimuli per twitch response (means ± s.e.m.)", "setting": "0.05 wt.-% intradermal, 20 min after application", "result": 1},
      {"measurement": "number of animals with abrogated twitch response (max. effect)", "setting": "0.05 wt.-% intradermal", "result": "1 of 7"},
      {"measurement": "Stimuli per twitch response (means ± s.e.m.)", "setting": "[1]", "result": "12 ± 4"},
      {"measurement": "Stimuli per twitch response (means ± s.e.m.)", "setting": "[2]", "result": "2 ± 1"},
      {"measurement": "Stimuli per twitch response (means ± s.e.m.)", "setting": "[3]", "result": 1},
      {"measurement": "Stimuli per twitch response (means ± s.e.m.)", "setting": "[4]", "result": 1},
      {"measurement": "Stimuli per twitch response (means ± s.e.m.)", "setting": "[5]", "result": 1},
      {"measurement": "number of animals with abrogated twitch response (max. effect)", "setting": "0.1 wt.-% intradermal", "result": "3 of 6"},
      {"measurement": "Stimuli per twitch response (means ± s.e.m.)", "setting": "[6]", "result": 20},
      {"measurement": "Stimuli per twitch response (means ± s.e.m.)", "setting": "[7]", "result": 20},
      {"measurement": "Stimuli per twitch response (means ± s.e.m.)", "setting": "[8]", "result": "4 ± 3"},
      {"measurement": "Stimuli per twitch response (means ± s.e.m.)", "setting": "[9]", "result": "2 ± 1"},
      {"measurement": "Stimuli per twitch response (means ± s.e.m.)", "setting": "[10]", "result": 1},
      {"measurement": "number of animals with abrogated twitch response (max. effect)", "setting": "0.3 wt.-% intradermal", "result": "7 of 7"},
      {"measurement": "Stimuli per twitch response (means ± s.e.m.)", "setting": "0.5 wt.-% intradermal, 2 min after application", "result": 20},
      {"measurement": "Stimuli per twitch response (means ± s.e.m.)", "setting": "0.5 wt.-% intradermal, 5 min after application", "result": 20},
      {"measurement": "Stimuli per twitch response (means ± s.e.m.)", "setting": "0.5 wt.-% intradermal, 10 min after application", "result": "10 ± 3"},
      {"measurement": "Stimuli per twitch response (means ± s.e.m.)", "setting": "0.5 wt.-% intradermal, 15 min after application", "result": "3 ± 2"},
      {"measurement": "Stimuli per twitch response (means ± s.e.m.)", "setting": "0.5 wt.-% intradermal, 20 min after application", "result": 1},
      {"measurement": "number of animals with abrogated twitch response (max. effect)", "setting": "0.5 wt.-% intradermal", "result": "7 of 7"},
      {"measurement": "time of maximum effect after application", "setting": "intradermal, 0.05 to 0.5%", "result": 2, "unit": "min"},
      {"measurement": "local anesthetic effect at 20 min after application", "setting": "intradermal, up to the highest concentration (0.5%)", "result": "completely disappeared"}
    ]},
    {"smiles": "COc1cccc(C2(O)CCCCC2CN(C)C)c1", "note": "(centres unmarked) [Tramadol]", "values": [
      {"measurement": "Stimuli per twitch response (means ± s.e.m.)", "setting": "[1]", "result": 1},
      {"measurement": "Stimuli per twitch response (means ± s.e.m.)", "setting": "[2]", "result": 1},
      {"measurement": "Stimuli per twitch response (means ± s.e.m.)", "setting": "[3]", "result": 1},
      {"measurement": "Stimuli per twitch response (means ± s.e.m.)", "setting": "[4]", "result": 1},
      {"measurement": "Stimuli per twitch response (means ± s.e.m.)", "setting": "[5]", "result": 1},
      {"measurement": "Stimuli per twitch response (means ± s.e.m.)", "setting": "[6]", "result": "8 ± 3"},
      {"measurement": "Stimuli per twitch response (means ± s.e.m.)", "setting": "[7]", "result": "6 ± 3"},
      {"measurement": "Stimuli per twitch response (means ± s.e.m.)", "setting": "[8]", "result": "3 ± 2"},
      {"measurement": "Stimuli per twitch response (means ± s.e.m.)", "setting": "[9]", "result": "3 ± 2"},
      {"measurement": "Stimuli per twitch response (means ± s.e.m.)", "setting": "[10]", "result": "3 ± 2"},
      {"measurement": "Stimuli per twitch response (means ± s.e.m.)", "setting": "1.0 wt.-% intradermal, 2 min after application", "result": 20},
      {"measurement": "Stimuli per twitch response (means ± s.e.m.)", "setting": "1.0 wt.-% intradermal, 5 min after application", "result": 20},
      {"measurement": "Stimuli per twitch response (means ± s.e.m.)", "setting": "1.0 wt.-% intradermal, 10 min after application", "result": 20},
      {"measurement": "Stimuli per twitch response (means ± s.e.m.)", "setting": "1.0 wt.-% intradermal, 15 min after application", "result": "15 ± 3"},
      {"measurement": "Stimuli per twitch response (means ± s.e.m.)", "setting": "1.0 wt.-% intradermal, 20 min after application", "result": "14 ± 3"}
    ]}
  ]
}
